How the values were obtained:
[1] = biological target: HSV-1 ribonucleotide reductase (Human alphaherpesvirus 1 strain 17, UniProt P08543+P10224); test: HSV-1 ribonucleotide reductase inhibition (reduction of CDP); format: biochemical, herpes simplex virus type 1 (strain F); conditions: for selective inhibition of the viral (HSV-1) ribonucleotide reductase over the cellular ribonucleotide reductase: HSV-1 versus hamster 96-V-2(600) ribonucleotide reductase
[2] = biological target: T1, hamster 96-V-2(600) ribonucleotide reductase (Cricetulus griseus, UniProt G3I2K8+G3I3B7); test: Hamster 96-V-2(600) ribonucleotide reductase inhibition (reduction of CDP); format: biochemical, Chinese hamster; conditions: partially purified enzyme 40 μg, in the presence of adenosine triphosphate (4 mM) and magnesium chloride (11.5 mM)
T1 construct: obtained from an overproducing strain of a Chinese hamster lung cell line; endogenous in cells; host or cells: overproducing strain 96-V-2(600) of a Chinese hamster lung cell line; partially purified
T1 sequence (G3I2K8 entry or part of it): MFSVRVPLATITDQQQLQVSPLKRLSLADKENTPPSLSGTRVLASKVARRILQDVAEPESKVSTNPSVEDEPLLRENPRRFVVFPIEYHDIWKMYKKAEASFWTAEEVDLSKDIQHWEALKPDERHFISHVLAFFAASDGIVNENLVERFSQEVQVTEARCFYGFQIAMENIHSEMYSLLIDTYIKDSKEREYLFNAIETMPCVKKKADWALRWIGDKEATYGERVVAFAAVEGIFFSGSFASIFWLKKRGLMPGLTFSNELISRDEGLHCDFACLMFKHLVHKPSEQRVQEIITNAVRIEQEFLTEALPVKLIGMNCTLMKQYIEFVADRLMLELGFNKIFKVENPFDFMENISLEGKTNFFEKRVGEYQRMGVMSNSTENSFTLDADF
T1 sequence (G3I3B7 entry or part of it): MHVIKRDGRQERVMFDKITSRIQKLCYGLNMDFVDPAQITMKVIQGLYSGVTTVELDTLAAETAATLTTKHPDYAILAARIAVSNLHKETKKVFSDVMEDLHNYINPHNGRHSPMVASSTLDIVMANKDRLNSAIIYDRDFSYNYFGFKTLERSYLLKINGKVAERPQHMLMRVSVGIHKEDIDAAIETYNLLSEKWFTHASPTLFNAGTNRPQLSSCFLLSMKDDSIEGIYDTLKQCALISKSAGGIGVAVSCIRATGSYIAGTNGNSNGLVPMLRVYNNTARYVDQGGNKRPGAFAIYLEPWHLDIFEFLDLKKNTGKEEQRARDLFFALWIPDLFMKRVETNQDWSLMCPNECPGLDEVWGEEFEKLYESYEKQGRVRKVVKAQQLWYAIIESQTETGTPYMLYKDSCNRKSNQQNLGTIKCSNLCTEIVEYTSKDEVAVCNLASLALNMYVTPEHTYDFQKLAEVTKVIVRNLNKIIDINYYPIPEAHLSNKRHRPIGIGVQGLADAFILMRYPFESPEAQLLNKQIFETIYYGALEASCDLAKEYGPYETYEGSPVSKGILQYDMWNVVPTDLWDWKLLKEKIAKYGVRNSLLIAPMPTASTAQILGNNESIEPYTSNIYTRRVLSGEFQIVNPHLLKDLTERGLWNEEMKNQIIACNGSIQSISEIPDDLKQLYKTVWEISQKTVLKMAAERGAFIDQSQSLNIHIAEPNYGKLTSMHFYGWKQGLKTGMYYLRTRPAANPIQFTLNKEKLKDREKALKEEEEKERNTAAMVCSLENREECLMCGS
Method: Hamster 96-V-2(600) ribonucleotide reductase (partially purified) was obtained from an overproducing strain of a Chinese hamster lung cell line as described by W. H. Lewis and P. R. Srinivasan, Mol. Cell Biol., 3, 1053 (1983).
Samples of the HSV-1 ribonucleotide reductase (65 μg with a specific activity of 26 units per mg) were mixed with increasing concentrations of the test compound, i.e. the naphthalene noted in the title of this example, in a series of tubes. Ribonucleotide reductase activity was assayed by monitoring the reduction of cytidine diphosphate (CDP) as described by Cohen et al., supra. The standard reaction mixture, in a final volume of 60 μl, contained: 50 mM, N-2-hydroxyethylpiperazine-N'-2-ethanesulfonic acid (pH 7.8); 4 mM NaF, 30 mM DL-dithiothreitol (DTT); 1 mM bacitracin, 54 μM CDP and 0.25 μCi of [^3 H]CDP. After 30 minutes of incubation at 37° C., the reaction was stopped by immersing the tube in boiling water for 4 minutes. The precipitate was removed by centrifugation. Nucleotides in the supernatant were converted to nucleosides by enzymatic hydrolysis. The deoxyribonucleosides were subsequently separated from the ribonucleosides by ascending polyethyleneimine-celulose chromatography. […] The results, shown in FIGURE 1, are expressed as a percentage of the activity obtained in the controls.

Sequence of HSV-1 ribonucleotide reductase (P08543 whole entry): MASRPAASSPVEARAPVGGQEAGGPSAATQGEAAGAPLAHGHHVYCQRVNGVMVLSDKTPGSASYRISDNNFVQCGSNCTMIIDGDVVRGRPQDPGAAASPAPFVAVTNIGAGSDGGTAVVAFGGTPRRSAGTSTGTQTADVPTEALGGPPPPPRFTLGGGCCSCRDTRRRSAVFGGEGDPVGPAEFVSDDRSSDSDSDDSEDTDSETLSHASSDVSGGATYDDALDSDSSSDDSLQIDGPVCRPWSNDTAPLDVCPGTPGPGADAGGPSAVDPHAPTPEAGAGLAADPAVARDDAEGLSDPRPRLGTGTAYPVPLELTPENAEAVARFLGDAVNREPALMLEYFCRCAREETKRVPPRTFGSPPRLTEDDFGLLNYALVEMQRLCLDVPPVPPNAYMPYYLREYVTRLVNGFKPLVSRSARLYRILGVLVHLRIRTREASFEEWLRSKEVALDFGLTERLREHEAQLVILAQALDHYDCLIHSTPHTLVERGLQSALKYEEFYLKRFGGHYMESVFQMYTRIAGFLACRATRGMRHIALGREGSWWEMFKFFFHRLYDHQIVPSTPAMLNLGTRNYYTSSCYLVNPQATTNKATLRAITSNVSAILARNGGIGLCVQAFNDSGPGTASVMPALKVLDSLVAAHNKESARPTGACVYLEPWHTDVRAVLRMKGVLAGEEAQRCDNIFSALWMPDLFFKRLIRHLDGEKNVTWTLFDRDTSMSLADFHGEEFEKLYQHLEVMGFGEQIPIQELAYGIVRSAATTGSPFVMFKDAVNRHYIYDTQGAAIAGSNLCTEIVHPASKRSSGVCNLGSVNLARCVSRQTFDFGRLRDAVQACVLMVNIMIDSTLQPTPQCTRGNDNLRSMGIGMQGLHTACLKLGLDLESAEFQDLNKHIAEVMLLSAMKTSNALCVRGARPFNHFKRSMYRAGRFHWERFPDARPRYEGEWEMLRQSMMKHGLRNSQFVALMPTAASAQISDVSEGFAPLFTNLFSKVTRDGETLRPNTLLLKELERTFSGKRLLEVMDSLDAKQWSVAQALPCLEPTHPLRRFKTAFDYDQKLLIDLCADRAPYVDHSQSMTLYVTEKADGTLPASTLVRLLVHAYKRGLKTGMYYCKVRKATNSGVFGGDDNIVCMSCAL
Sequence of HSV-1 ribonucleotide reductase (P10224 whole entry): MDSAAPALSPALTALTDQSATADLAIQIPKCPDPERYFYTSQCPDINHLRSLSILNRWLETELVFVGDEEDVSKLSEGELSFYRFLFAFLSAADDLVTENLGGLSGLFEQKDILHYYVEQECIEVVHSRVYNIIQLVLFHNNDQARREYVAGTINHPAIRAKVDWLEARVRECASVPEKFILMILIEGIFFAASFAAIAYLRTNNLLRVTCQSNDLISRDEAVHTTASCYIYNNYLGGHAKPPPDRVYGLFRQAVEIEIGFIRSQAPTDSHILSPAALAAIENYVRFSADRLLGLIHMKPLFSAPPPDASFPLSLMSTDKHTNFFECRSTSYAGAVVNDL

Compound	selective inhibition of the viral (HSV-1) ribonucleotide reductase over the cellular ribonucleotide reductase [1]	inhibitory effect of increasing concentrations on HSV-1 ribonucleotide reductase activity (FIG. 1, percentage of control activity) ([1]; increasing concentrations of the test compound)	IC50 [2] [µM]
CCOC1=C(OCC)C(=O)c2cc(Cl)ccc2C1=O [6-chloro-2,3-diethoxy-1,4-naphthalenedione]	selective inhibition	–	–
CCCOC1=C(OCCC)C(=O)c2cc(Cl)ccc2C1=O [6-chloro-2,3-dipropoxy-1,4-naphthalenedione]	selective inhibition	–	–
COC1=C(OC)C(=O)c2cc(Cl)ccc2C1=O [6-Chloro-2,3-dimethoxy-1,4-naphthalenedione]	selective inhibition	progressively greater inhibitory effect	> 250
COC1=C(OC)C(=O)c2cc(C#N)ccc2C1=O [6-cyano-2,3-dimethoxy-1,4-naphthalenedione]	selective inhibition	–	–
COC1=C(OC)C(=O)c2cc(OC)ccc2C1=O [2,3,6-trimethoxy-1,4-naphthalenedione]	selective inhibition	–	–
COC1=C(OC)C(=O)c2ccccc2C1=O [2,3-dimethoxy-1,4-naphthalenedione]	selective inhibition	–	–
